In ChEMBL document CHEMBL3046861, “QSAR STUDIES ON ADENOSINE KINASE INHIBITORS” (Med Chem Res, 2004):

These compounds were tested against Adenosine kinase (Homo sapiens) (UniProt P55263).
Sequence of Adenosine kinase (Homo sapiens) (P55263 2-362 limits assumed): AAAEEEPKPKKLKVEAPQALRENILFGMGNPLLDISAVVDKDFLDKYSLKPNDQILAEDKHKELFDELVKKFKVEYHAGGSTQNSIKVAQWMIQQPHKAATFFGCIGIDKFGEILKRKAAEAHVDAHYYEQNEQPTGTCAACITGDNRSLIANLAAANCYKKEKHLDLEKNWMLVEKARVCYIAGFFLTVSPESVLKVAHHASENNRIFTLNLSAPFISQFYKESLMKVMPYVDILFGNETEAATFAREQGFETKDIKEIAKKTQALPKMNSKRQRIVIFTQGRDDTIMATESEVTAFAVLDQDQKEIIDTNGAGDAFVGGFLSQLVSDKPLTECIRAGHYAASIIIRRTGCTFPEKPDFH
Description: Inhibition of adenosine kinase (unknown origin)

| Structure (SMILES) | logIC50 |
| --- | --- |
| C[C@H]1O[C@@H](n2cc(C#N)c3c(N)ncnc32)[C@H](O)[C@@H]1O | -0.509 |
| [N-]=[N+]=NC[C@H]1O[C@@H](n2cc(Br)c3c(Cl)ncnc32)[C@H](O)[C@@H]1O | -1 |
| Nc1ncnc2c1c(Cl)cn2[C@@H]1O[C@H](CO)[C@@H](O)[C@H]1O | -0.678 |
| CSc1cn([C@@H]2O[C@H](C)[C@@H](O)[C@H]2O)c2ncnc(Cl)c12 | -1.16 |
| C[C@H]1O[C@@H](n2cc(I)c3c(Cl)ncnc32)[C@H](O)[C@@H]1O | -2.52 |
| Nc1ncnc2c1c(Br)cn2[C@@H]1OC[C@@H](O)[C@H]1O | -0.301 |
| Nc1ncnc2c1c(Br)cn2[C@@H]1O[C@H](CO)[C@@H](O)[C@H]1O | -0.921 |
| [N-]=[N+]=NC[C@H]1O[C@@H](n2cc(I)c3c(Cl)ncnc32)[C@H](O)[C@@H]1O | -2.05 |
| Cc1cn([C@@H]2O[C@H](C)[C@@H](O)[C@H]2O)c2ncnc(Cl)c12 | -0.272 |
| C[C@H]1O[C@@H](n2cc(I)c3c(S)ncnc32)[C@H](O)[C@@H]1O | 0.813 |
| CNc1ncnc2c1c(I)cn2[C@@H]1O[C@H](C)[C@@H](O)[C@H]1O | 0.0792 |
| [N-]=[N+]=NC[C@H]1O[C@@H](n2cc(Br)c3c(N)ncnc32)[C@H](O)[C@@H]1O | -1.2 |
| CSc1cn([C@@H]2O[C@H](C)[C@@H](O)[C@H]2O)c2ncnc(N)c12 | 0.13 |
| CSc1ncnc2c1c(I)cn2[C@@H]1O[C@H](C)[C@@H](O)[C@H]1O | -1.35 |
| C[C@H]1O[C@@H](n2cc(Br)c3c(Cl)ncnc32)[C@H](O)[C@@H]1O | -1.3 |
| OC[C@H]1O[C@@H](n2cc(I)c3c(Cl)ncnc32)[C@H](O)[C@@H]1O | -1.62 |

Other lines, results leading:

| logIC50 | Structure (SMILES) |
| --- | --- |
| -1.46 | [N-]=[N+]=NC[C@H]1O[C@@H](n2cc(I)c3c(N)ncnc32)[C@H](O)[C@@H]1O |
| -3.22 | NC[C@H]1O[C@@H](n2cc(I)c3c(N)ncnc32)[C@H](O)[C@@H]1O |
| -1 | C=C[C@H]1O[C@@H](n2cc(I)c3c(N)ncnc32)[C@H](O)[C@@H]1O |
| -3.7 | NC[C@H]1O[C@@H](n2cc(Br)c3c(N)ncnc32)[C@H](O)[C@@H]1O |
| -1.22 | CC[C@H]1O[C@@H](n2cc(I)c3c(N)ncnc32)[C@H](O)[C@@H]1O |
| 0.0792 | COC[C@H]1O[C@@H](n2cc(I)c3c(N)ncnc32)[C@H](O)[C@@H]1O |
| -4 | NC[C@H]1O[C@@H](n2cc(I)c3c(Cl)ncnc32)[C@H](O)[C@@H]1O |
